As a reminder, the IC50 is the midpoint of a concentration-inhibition curve.

Chain of HIV-1 fusion (gp160 induced cell-cell fusion; HeLa P4 cell line expressing CCR5 and CD4 / CHO-Tat10 cell line) (P51681 whole entry, the tested form may be a part): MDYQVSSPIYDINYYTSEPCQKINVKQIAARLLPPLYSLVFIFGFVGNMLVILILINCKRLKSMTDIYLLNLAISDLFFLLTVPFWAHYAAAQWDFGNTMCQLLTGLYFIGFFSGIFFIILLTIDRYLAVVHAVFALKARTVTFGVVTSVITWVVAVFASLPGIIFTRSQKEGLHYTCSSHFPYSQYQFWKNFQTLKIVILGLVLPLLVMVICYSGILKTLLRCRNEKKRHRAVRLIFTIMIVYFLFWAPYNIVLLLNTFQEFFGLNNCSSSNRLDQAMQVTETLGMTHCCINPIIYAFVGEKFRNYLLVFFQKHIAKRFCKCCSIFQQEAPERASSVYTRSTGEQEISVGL

The target of the test is HIV-1 fusion (gp160 induced cell-cell fusion; HeLa P4 cell line expressing CCR5 and CD4 / CHO-Tat10 cell line) (Homo sapiens, UniProt P51681). The test is described as follows: gp160 induced cell-cell fusion assay. The format is cell-based. The note with it: HeLa P4 / CHO-Tat10 cells, read-out: IC50. An excerpt:
Biol., 60, 147-52 (1996); and/or by using the intracellular calcium mobilisation assays as described by the same authors, and/or inhibiting cell fusion following procedures disclosed in Bradley et al., J Biomol Screen 9, 516-24 (2004).
The gp160 induced cell-cell fusion assay uses a HeLa P4 cell line and a CHO-Tat10 cell line.
The HeLa P4 cell line expresses CCR5 and CD4 and has been transfected with HIV-1 LTR-β-Galactosidase. The media for this cell line is Dulbecco modified eagle's medium (D-MEM) (without L-glutamine) containing 10% foetal calf serum (FCS), 2 mM L-glutamine, penicillin/streptomycin (Pen/Strep; 100 U/mL penicillin+[…] streptomycin), and 1 μg/ml puromycin.
The CHO cell line is a Tat (transcriptional trans activator)-expressing clone from a CHO JRR17.1 cell line that has been transfected with pTat puro plasmid. The media for this cell line is rich medium for mammalian cell culture originally developed at Roswell Park Memorial Institute RPMI1640 (without L-glutamine) containing 10% FCS, 2 mM L-glutamine, 0.5 mg/ml Hygromycin B and 12 µg/ml puromycin. The CHO JRR17.1 line expresses gp160 (JRFL) and is a clone that has been selected for its ability to fuse with a CCR5/CD4 expressing cell line.
Upon cell fusion, Tat present in the CHO cell is able to transactivate the HIV-1 long terminal repeat (LTR) present in the HeLa cell leading to the expression of the β-Galactosidase enzyme. This expression is then measured using a Fluor Ace™ β-Galactosidase reporter assay kit (Bio-Rad cat no. 170-3150). This kit is a quantitative fluorescent assay that determines the level of expression of β-galactosidase using 4-methylumbelliferyl-galactopyranoside (MUG) as substrate. β-Galactosidase hydrolyses the fluorogenic substrate resulting in release of the fluorescent molecule 4-methylumbelliferone (4MU). Fluorescence of 4-methylumbelliferone is then measured on a fluorometer using an excitation wavelength of 360 nm and emission wavelength of 460 nm.
Compounds that inhibit fusion will give rise to a reduced signal and, following solubilisation in an appropriate solvent and dilution in culture medium, a dose-response curve for each compound can be used to calculate IC50 values.
For the molecule `COC(=O)N1CCc2nc(C)n(C3CCN(C(C)CC(NC(=O)C4CCC(F)(F)CC4)c4ccccc4)CC3)c2C1` (mixture of isomers) [Example 6], the IC50 was 1 nM.

As for `COC(=O)N1CCc2nc(C)n(C3CCN(C(C)CC(NC(=O)CC4CC4)c4ccccc4)CC3)c2C1` (mixture of isomers) [Example 7], the IC50 was 0.9 nM.

Take `COC(=O)N1CCc2nc(C)n(C3CCN(C(C)CC(NC(=O)C4CCS(=O)(=O)CC4)c4ccccc4)CC3)c2C1` (mixture of isomers) [Example 8]: the IC50 was 6 nM.

Regarding `COC(=O)N1CCc2nc(C)n(C3CCN(C(C)CC(NC(=O)C4CCC4)c4ccccc4)CC3)c2C1` (mixture of isomers) [Example 10], the IC50 amounted to 0.3 nM.

On to `COC(=O)N1CCc2nc(C)n(C3CCN(C(C)CC(NC(=O)C(C)C)c4ccccc4)CC3)c2C1` (mixture of isomers) [Example 11], for which the 50% inhibitory concentration (IC50) was 0.6 nM.

As for `COC(=O)N1CCc2nc(C)n(C3CCN(C(C)CC(NC(=O)C4CC4)c4ccccc4)CC3)c2C1` (mixture of isomers) [Example 12], the IC50 was found to be 0.6 nM.

With `COC(=O)N1CCc2nc(C)n(C3CCN(C(C)CC(NC(=O)OC(C)C)c4ccccc4)CC3)c2C1` (mixture of isomers) [Example 14], the IC50 was found to be 17.2 nM.

Regarding `COC(=O)N1CCc2c(nc(C)n2C2CCN(C(C)CC(NC(C)=O)c3cccc(F)c3)CC2)C1` (mixture of isomers) [Example 76], the concentration for half-maximal inhibition (IC50) is 5.5 nM.

As for `COC(=O)N1CCc2c(nc(C)n2C2CCN(C(C)CC(NC(=O)C(C)C)c3cccc(F)c3)CC2)C1` (mixture of isomers) [Example 77], the IC50 was determined as 0.6 nM.

Regarding `COC(=O)N1CCc2c(nc(C)n2C2CCN(C(C)CC(NC(=O)C3CC3)c3cccc(F)c3)CC2)C1` (mixture of isomers) [Example 78], the half-maximal inhibitory concentration (IC50) was found to be 1.8 nM.

In the case of `CC(CC(NC(=O)C1CCC(F)(F)CC1)c1ccccc1)N1CCC(n2ccnc2)CC1` (mixture of isomers) [Example 127], the concentration for half-maximal inhibition (IC50) came out at 4.7 nM.

As for `Cc1nc(C2CCN(C(C)CC(NC(=O)C3CCC(F)(F)CC3)c3ccccc3)CC2)no1` (mixture of isomers) [Example 128], the IC50 came out at 26 nM.

For the molecule `CCc1noc(C2CCN(C(C)CC(NC(=O)C3CCC(F)(F)CC3)c3ccccc3)CC2)n1` (mixture of isomers) [Example 129], the IC50 was 8.6 nM.

In the case of `CC(C)Cc1nnc(C2CCN(C(C)CC(NC(=O)C3CCC(F)(F)CC3)c3ccccc3)CC2)o1` (mixture of isomers) [Example 130], the IC50 was 5.9 nM.

On to `CC(C)c1nc(C2CCN(C(C)CC(NC(=O)C3CCC(F)(F)CC3)c3ccccc3)CC2)no1` (mixture of isomers) [Example 131], for which the IC50 was found to be 20.2 nM.

On to `COC(=O)N1CCc2nc(C)n(C3CCN(C(C)C[C@H](NC(=O)OC(C)(C)C)c4ccccc4)CC3)c2C1` (single isomer, unassigned) [Example 2], for which the IC50 was 14 nM.

Turning to `COC(=O)N1CCc2nc(C)n(C3CCN(C(C)C[C@H](NC(=O)OC(C)(C)C)c4ccccc4)CC3)c2C1` (single isomer, unassigned) [Example 3], the IC50 worked out at 434 nM.

Consider `COC(=O)N[C@@H](CC(C)N1CCC(n2c(C)nc3c2CN(C(=O)OC)CC3)CC1)c1ccccc1` (single isomer, unassigned) [Example 13A], for which the IC50 turned out to be 37.1 nM.

`COC(=O)N[C@@H](CC(C)N1CCC(n2c(C)nc3c2CN(C(=O)OC)CC3)CC1)c1ccccc1` (single isomer, unassigned) [Example 13B]: the half-inhibitory concentration (IC50) stood at 600 nM.

In the case of `Cc1nc2c(n1C1CCN(C(C)C[C@H](NC(=O)C3CCC3)c3ccccc3)CC1)CN(C(=O)C(C)C)CC2` (single isomer, unassigned) [Example 24], the 50% inhibitory concentration (IC50) was 0.2 nM.

`Cc1nc2c(n1C1CCN(C(C)C[C@H](NC(=O)CC(C)C)c3ccccc3)CC1)CN(C(=O)C(C)C)CC2` (single isomer, unassigned) [Example 28]: the IC50 was determined as 79.2 nM.

On to `Cc1nc2c(n1C1CCN(C(C)C[C@H](NC(=O)C(C)C)c3ccccc3)CC1)CN(C(=O)C(C)C)CC2` (single isomer, unassigned) [Example 29], for which the concentration for half-maximal inhibition (IC50) came out at 29.9 nM.

With `Cc1nc2c(n1C1CCN(C(C)C[C@H](NC(=O)C3CCC3)c3ccccc3)CC1)CN(C(=O)C(C)C)CC2` (single isomer, unassigned) [Example 30], the concentration for half-maximal inhibition (IC50) came to 11 nM.

On to `CC(=O)N[C@@H](CC(C)N1CCC(n2c(C)nc3c2CN(C(=O)C(C)C)CC3)CC1)c1ccccc1` (single isomer, unassigned) [Example 31], for which the IC50 was 191 nM.

For the molecule `CCCC(=O)N[C@@H](CC(C)N1CCC(n2c(C)nc3c2CN(C(C)=O)CC3)CC1)c1cccc(F)c1` (single isomer, unassigned) [Example 47], the 50% inhibitory concentration (IC50) worked out at 0.7 nM.

In the case of `CC(=O)N1CCc2nc(C)n(C3CCN(C(C)C[C@H](NC(=O)CC(C)C)c4cccc(F)c4)CC3)c2C1` (single isomer, unassigned) [Example 50], the concentration for half-maximal inhibition (IC50) came out at 0.4 nM.

Regarding `CC(=O)N1CCc2nc(C)n(C3CCN(C(C)C[C@H](NC(=O)C4CCC(F)(F)CC4)c4cccc(F)c4)CC3)c2C1` (single isomer, unassigned) [Example 51], the IC50 is 0.3 nM.

Regarding `COC(=O)N1CCc2c(nc(C)n2C2CCN(C(C)C[C@H](NC(C)=O)c3ccccc3)CC2)C1` (single isomer, unassigned) [Example 72], the IC50 amounted to 2.4 nM.

For `COC(=O)N1CCc2c(nc(C)n2C2CCN(C(C)C[C@H](NC(C)=O)c3ccccc3)CC2)C1` (single isomer, unassigned) [Example 73], the half-inhibitory concentration (IC50) was 9.1 nM.

On to `CC(=O)N1CCc2c(nc(C)n2C2CCN(C(C)C[C@H](NC(=O)C(C)C)c3cccc(F)c3)CC2)C1` (single isomer, unassigned) [Example 93], for which the IC50 turned out to be 12.9 nM.

`CCOC(=O)N1CCc2c(nc(C)n2C2CCN(C(C)C[C@H](NC(=O)C(C)C)c3cccc(F)c3)CC2)C1` (single isomer, unassigned) [Example 95]: the IC50 was 5.5 nM.

Consider `CCOC(=O)N1CCc2c(nc(C)n2C2CCN(C(C)C[C@H](NC(=O)C3CC3)c3cccc(F)c3)CC2)C1` (single isomer, unassigned) [Example 97], for which the IC50 is 10 nM.

Turning to `CCOC(=O)N1CCc2c(nc(C)n2C2CCN(C(C)C[C@H](NC(=O)CC)c3cccc(F)c3)CC2)C1` (single isomer, unassigned) [Example 98], the IC50 is 19.1 nM.

For the molecule `CC(=O)N1CCc2c(nc(C)n2C2CCN(C(C)C[C@H](NC(=O)C3CC3)c3cccc(F)c3)CC2)C1` (single isomer, unassigned) [Example 101], the IC50 came out at 18.8 nM.

Consider `CCC(=O)N[C@@H](CC(C)N1CCC(n2c(C)nc3c2CCN(C(C)=O)C3)CC1)c1cccc(F)c1` (single isomer, unassigned) [Example 102], for which the 50% inhibitory concentration (IC50) was found to be 25.9 nM.

For `Cc1noc(C2CCN(C(C)C[C@H](NC(=O)OC(C)(C)C)c3ccccc3)CC2)n1` (single isomer, unassigned) [Example 106A], the IC50 is 362 nM.

As to `Cc1noc(C2CCN(C(C)C[C@H](NC(=O)C3CCC(F)(F)CC3)c3ccccc3)CC2)n1` (single isomer, unassigned) [Example 109], the concentration for half-maximal inhibition (IC50) was found to be 4.6 nM.

Consider `Cc1noc(C2CCN(C(C)C[C@H](NC(=O)C3CCC(F)(F)CC3)c3ccccc3)CC2)n1` (single isomer, unassigned) [Example 110], for which the IC50 worked out at 353 nM.

As for `Cc1cc(C(C)C)n(C2CCN(C(C)C[C@H](NC(=O)C3CCC(F)(F)CC3)c3ccccc3)CC2)n1` (single isomer, unassigned) [Example 116], the IC50 stood at 50.5 nM.

`Cc1cc(C(C)C)n(C2CCN(C(C)C[C@H](NC(=O)C3CCC(F)(F)CC3)c3ccccc3)CC2)n1` (single isomer, unassigned) [Example 117]: the IC50 amounted to 1170 nM.

`CC(C)c1nnnn1C1CCN(C(C)C[C@H](NC(=O)C2CCC(F)(F)CC2)c2ccccc2)CC1` (single isomer, unassigned) [Example 121]: the IC50 worked out at 0.5 nM.

For `CC(C[C@H](NC(=O)C1CCC(F)(F)CC1)c1ccccc1)N1CCC(c2nnnn2C(C)C)CC1` (single isomer, unassigned) [Example 125], the half-inhibitory concentration (IC50) was 2.2 nM.

Regarding `CC(C[C@H](NC(=O)C1CCC(F)(F)CC1)c1ccccc1)N1CCC(c2nnnn2C(C)C)CC1` (single isomer, unassigned) [Example 126], the 50% inhibitory concentration (IC50) is 21.8 nM.

As to `COC(=O)N1CCc2nc(C)n(C3CCN(C(C)C[C@H](NC(=O)C4CCC4(F)F)c4ccccc4)CC3)c2C1` (stereo partly drawn) [Example 5], the IC50 came out at 0.7 nM.

Take `Cc1nc2c(n1C1CCN(C(C)C[C@H](NC(=O)C3(C)CC3)c3ccccc3)CC1)CN(C(=O)C(C)C)CC2` (stereo partly drawn) [Example 22]: the IC50 amounted to 0.5 nM.

(Values after patent US20090209578A1, “CHEMICAL COMPOUNDS” (PFIZER INC, priority 2005, published 2009).)
